From patent US5159061A, “Atrial natriuretic peptide derivative” (Takeda Chemical Industries, Ltd., priority 1986, dated 1992)
Like-named read-outs stand apart in the source and are kept apart here. Where a SMILES comes first, the peptide text is derived from it. Bridges are numbered along the chain shown (N, C = ends). [ ]: non-standard residue; d: D form. Aib = CC(C)(N)C(=O)O

Assays:
[1] = test system: spontaneously hypertensive rats (SHR); experiment: Hypotensive action in spontaneously hypertensive rats (SHR); format: in vivo, rat; details: male SHR, 20 weeks old; intravenous 100 μg/250 μl/kg in physiological saline; maximum decrease in blood pressure, difference from preadministration value
Method: Hypotensive action in spontaneously hypertensive rats (SHR)
Three male SHRs at the age of 20 weeks in each group were anesthetized with pentobarbital (50 mg/kg, intraperitoneal administration); SP-10 and SP-45 polyethylene tubes (manufactured by Natsume Seisakusho, Japan) were inserted respectively into the groin artery and vein, and through each of these a cannula was passed to the neck site via the back subcutaneous tissue, and one end of the cannula was fixed there. The rats were used in experiments the following day. As a α-hANP derivatives, [Aib^6 ]-α-hANP[6-28] obtained in Example 1 and [Aib^6,Ile^12 ]-α-hANP[6-28] obtained in Example 8, and as a control, α-hANP[7-28], in solution in physiological saline, were each intravenously administered in the ratio of 100 μg/250 μl/kg of body weight. Hypotensive activities are shown as a degree of the maximum decrease in blood pressure (difference from the preadministration value) that occurred after the administration of the subject compound.

[2] = the molecule shown is the open-chain precursor, disulfide bond, 2 steps
[3] = 53-membered ring, air/NH4OAc/NH3 pH 6.9, water, 0.052 mM, 25.0 °C
[4] = 53-membered ring, air (after HF deprotection)

Question: With `CC[C@H](C)[C@@H]1NC(=O)[C@H](CCCNC(=N)N)NC(=O)[C@H](CC(=O)O)NC(=O)[C@H]([C@@H](C)CC)NC(=O)[C@H](CCCNC(=N)N)NC(=O)CNC(=O)CNC(=O)[C@H](Cc2ccccc2)NC(=O)[C@@H](NC(=O)C(C)(C)N)CSSC[C@@H](C(=O)N[C@@H](CC(N)=O)C(=O)N[C@@H](CO)C(=O)N[C@@H](Cc2ccccc2)C(=O)N[C@@H](CCCNC(=N)N)C(=O)N[C@@H](Cc2ccc(O)cc2)C(=O)O)NC(=O)CNC(=O)[C@H](CC(C)C)NC(=O)CNC(=O)[C@H](CO)NC(=O)[C@H](CCC(N)=O)NC(=O)[C@H](C)NC(=O)CNC1=O` [[Aib^6, Ile^12]-α-hANP[6-28]] (H-[Aib]CFGGRIDRIGAQSGLGCNSFRY-OH; disulfide 2-18) as the compound, how does the “Degree of Decrease in Blood Pressure” value [1] read?
Answer: -90 ΔmmHg

Question: For “H-Cys-Phe-Gaba-Arg-Met-Asp-Arg-Ile-Gly-Ala-Gln-Ser-Gly-Leu-Gly-Cys-Asn-Ser-Phe-Arg-Tyr-OH”, which ring closure, isolated yield ([2]; 52-membered ring) is on record?
Answer: 20%

Question: With “H-Aib-Cys-Phe-Gly-Gly-Arg-Met-Asp-Arg-Ile-Gly-Ala-Gln-Ser-Gly-Leu-Gly-Cys-Asn-Ser-Phe-Arg-Tyr-OH” as the compound, how does the ring closure, isolated yield [2, 3] read?
Answer: 12%

Question: For “H-Ala-Cys-Phe-Gly-Gly-Arg-Met-Asp-Arg-Ile-Gly-Ala-Gln-Ser-Gly-Leu-Gly-Cys-Asn-Ser-Phe-Arg-Tyr-OH”, which ring closure, isolated yield [2, 4] is on record?
Answer: 14%

Question: Which ring closure, isolated yield [2, 3] does the source give for “H-Achc-Cys-Phe-Gly-Gly-Arg-Met-Asp-Arg-Ile-Gly-Ala-Gln-Ser-Gly-Leu-Gly-Cys-Asn-Ser-Phe-Arg-Tyr-OH” here?
Answer: 22%

Question: With “H-dAla-Cys-Phe-Gly-Gly-Arg-Met-Asp-Arg-Ile-Gly-Ala-Gln-Ser-Gly-Leu-Gly-Cys-Asn-Ser-Phe-Arg-Tyr-OH” as the compound, how does the ring closure, isolated yield [2, 4] read?
Answer: 17%

Question: For “H-Val-Cys-Phe-Gly-Gly-Arg-Met-Asp-Arg-Ile-Gly-Ala-Gln-Ser-Gly-Leu-Gly-Cys-Asn-Ser-Phe-Arg-Tyr-OH”, which ring closure, isolated yield [2, 4] is on record?
Answer: 16%

Question: Which ring closure, isolated yield [2, 4] does the source give for “H-Aib-Cys-Phe-Gly-Gly-Arg-Nle-Asp-Arg-Ile-Gly-Ala-Gln-Ser-Gly-Leu-Gly-Cys-Asn-Ser-Phe-Arg-Tyr-OH” here?
Answer: 14.4%

Question: For `CC[C@H](C)[C@@H]1NC(=O)[C@H](CCCNC(=N)N)NC(=O)[C@H](CC(=O)O)NC(=O)[C@H](CCSC)NC(=O)[C@H](CCCNC(=N)N)NC(=O)CNC(=O)CNC(=O)[C@H](Cc2ccccc2)NC(=O)[C@@H](NC(=O)C(C)(C)N)CSSC[C@@H](C(=O)N[C@@H](CC(N)=O)C(=O)N[C@@H](CO)C(=O)N[C@@H](Cc2ccccc2)C(=O)N[C@@H](CCCNC(=N)N)C(=O)N[C@@H](Cc2ccc(O)cc2)C(=O)O)NC(=O)CNC(=O)[C@H](CC(C)C)NC(=O)CNC(=O)[C@H](CO)NC(=O)[C@H](CCC(N)=O)NC(=O)[C@H](C)NC(=O)CNC1=O` [[Aib^6]-α-hANP[6-28]] (H-[Aib]CFGGRMDRIGAQSGLGCNSFRY-OH; disulfide 2-18), which “Degree of Decrease in Blood Pressure” value [1] is on record?
Answer: -70 ΔmmHg

Question: With “H-Cys-Phe-Gly-Gly-Arg-Met-Asp-Arg-Ile-Gly-Ala-Gln-Ser-Gly-Leu-Gly-Cys-Asn-Ser-Phe-dArg-Tyr-OH” as the compound, how does the ring closure, isolated yield [2, 4] read?
Answer: 25%

Question: With “H-Cys-Phe-dAla-Gly-Arg-Met-Asp-Arg-Ile-Gly-Ala-Gln-Ser-Gly-Leu-Gly-Cys-Asn-Ser-Phe-Arg-Tyr-OH” as the compound, how does the ring closure, isolated yield ([2]; 53-membered ring, air/NH4OAc/NH3 pH 6.9, water, 0.053 mM, 25.0 °C) read?
Answer: 16%

Question: For “H-Cys-Phe-Gly-Arg-Met-Asp-Arg-Ile-Gly-Ala-Gln-Ser-Gly-Leu-Gly-Cys-Asn-Ser-Phe-Arg-Tyr-OH”, which ring closure, isolated yield ([2]; 50-membered ring, air/NH4OAc/NH3 pH 6.9, water, 0.056 mM, 25.0 °C) is on record?
Answer: 18%

Question: Which ring closure, isolated yield [2, 4] does the source give for “H-Ile-Cys-Phe-Gly-Gly-Arg-Met-Asp-Arg-Ile-Gly-Ala-Gln-Ser-Gly-Leu-Gly-Cys-Asn-Ser-Phe-Arg-Tyr-OH” here?
Answer: 11%

Question: For “H-Aib-Cys-Phe-Gly-Gly-Arg-Leu-Asp-Arg-Ile-Gly-Ala-Gln-Ser-Gly-Leu-Gly-Cys-Asn-Ser-Phe-Arg-Tyr-OH”, which ring closure, isolated yield [2, 4] is on record?
Answer: 22%

Question: For “H-Cys-Phe-Ava-Arg-Met-Asp-Arg-Ile-Gly-Ala-Gln-Ser-Gly-Leu-Gly-Cys-Asn-Ser-Phe-Arg-Tyr-OH”, which ring closure, isolated yield ([2]; 53-membered ring, air/NH4OAc/NH3 pH 6.9, water, 0.055 mM, 25.0 °C) is on record?
Answer: 30%

Question: For “H-Cys-Phe-βAla-Arg-Met-Asp-Arg-Ile-Gly-Ala-Gln-Ser-Gly-Leu-Gly-Cys-Asn-Ser-Phe-Arg-Tyr-OH”, which ring closure, isolated yield ([2]; 51-membered ring, air/NH4OAc/NH3 pH 6.9, water, 0.056 mM, 25.0 °C) is on record?
Answer: 17%

Question: With “H-Cys-Phe-Gly-Gly-Arg-DL-Chg-Asp-Arg-Ile-Gly-Ala-Gln-Ser-Gly-Leu-Gly-Cys-Asn-Ser-Phe-Arg-Tyr-OH” as the compound, how does the ring closure, isolated yield [2, 4] read?
Answer: 38%
